For the series, the target named is T1, CYP1A2 (Homo sapiens, UniProt P05177).
T1 sequence (P05177 1-516): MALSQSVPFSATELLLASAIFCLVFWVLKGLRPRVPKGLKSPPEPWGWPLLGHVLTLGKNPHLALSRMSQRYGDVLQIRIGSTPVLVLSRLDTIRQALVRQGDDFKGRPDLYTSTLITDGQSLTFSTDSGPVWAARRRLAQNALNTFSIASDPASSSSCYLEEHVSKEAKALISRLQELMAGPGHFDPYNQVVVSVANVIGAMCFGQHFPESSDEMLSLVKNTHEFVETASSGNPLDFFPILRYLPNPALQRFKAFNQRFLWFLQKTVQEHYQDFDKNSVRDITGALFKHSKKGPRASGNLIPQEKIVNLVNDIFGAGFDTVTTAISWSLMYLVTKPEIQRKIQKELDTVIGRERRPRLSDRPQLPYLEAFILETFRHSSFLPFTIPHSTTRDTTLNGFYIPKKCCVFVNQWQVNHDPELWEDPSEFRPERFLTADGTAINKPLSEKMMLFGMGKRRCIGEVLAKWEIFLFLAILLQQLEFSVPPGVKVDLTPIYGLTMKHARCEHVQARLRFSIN
Kind of series: in vitro. The settings on record: for inhibitory activity to CYP1A2 (10% or greater inhibition at 1 μM): 1 μM test concentration; for activity at 1 h, 1 μM: human; for % of Control Indication Activity (Mean): 1 μM active ingredient, Rh CYP1A2-mediated phenacetin O-deethylation, test dataset of 202 herb ingredients. Type of series: biochemical.

[1] abbreviates: recombinant human CYP1A2, pH 7.4, probe phenacetin (25 μM), O-deethylation to acetaminophen, 1 μM test compound, 25 μM phenacetin, average of duplicate determinations, read-out: % of Control Indication Activity.

Entries after “also recorded” stand apart in the source; their conditions may differ. Read-outs that look alike come from different tables or passages of the source.
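Note: recombinant CYP1A2 incubated for 1 h at 37 °C, with the reaction started by an NADPH-generating system.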

Method: A total of 18 candidate compounds selected by pharmacophore and docking were examined for their potential to inhibit rhCYP1A2 phenacetin O-deethylation activity at a test concentration of 1 μM.
The basic incubation medium contained 100 mM potassium phosphate buffer (PH 7.4), 50 pmol recombinant human CYP1A2, 25 μM phenacetin and 1 μM active ingredients. The final incubation volume was 200 μL. After 5 min pre-incubation at 37 °C, the reaction was initiated by the addition of NADPH-generating system (5 mM MgCl2, 10 mM glucose 6-phosphates, 1 mM NADPH, and 2.5 U per mL glucose 6-phosphate dehydrogenase). Incubations were performed in a 37 °C shaking water bath for 1 h. Reactions were stopped by adding 0.4 mL of ice-cold acetonitrile containing 0.2 mg/L tinidazole (IS). […] The column was maintained at 35 °C and the injection volume was 10 μL.

On to `COc1cc(C[C@H]2COC(=O)[C@@H]2Cc2ccc(O)c(OC)c2)ccc1O` [zhang 284, (−)-Matairesinol], for which the “inhibitory activity to CYP1A2 (10% or greater inhibition at 1 μM)” value (listed as 284) is recorded as “found to have inhibition of CYP1A2 activity; also recorded: confirmed to have inhibitory activities to CYP1A2”. The activity at 1 h, 1 μM under setting [1] was less than 90%.
Turning to `O=c1ccc2ccc(Oc3cc4cc(O)c(O)cc4oc3=O)cc2o1` [zhang 300, Edgeworthin], the “inhibitory activity to CYP1A2 (10% or greater inhibition at 1 μM)” value was “found to have inhibition of CYP1A2 activity; also recorded: confirmed to have inhibitory activities to CYP1A2”. For the same compound, under setting [1], the activity at 1 h, 1 μM is less than 90%.
For the compound `COc1cc(C[C@H]2COC(=O)[C@@H]2Cc2ccc(O)c(OC)c2)ccc1O` [zhang 616, (+)-Matairesinol], the “inhibitory activity to CYP1A2 (10% or greater inhibition at 1 μM)” value (listed as 616) is recorded as “found to have inhibition of CYP1A2 activity; also recorded: confirmed to have inhibitory activities to CYP1A2”.
For the compound `OC[C@H]1O[C@@H](Oc2cc(O)cc(/C=C/c3ccc(O)cc3)c2)[C@H](O)[C@@H](O)[C@@H]1O` [zhang 713, Piceid], the “% of Control Indication Activity” value (1 μM test compound, 25 μM phenacetin, average of duplicate determinations) is listed as more than 90%.
As to `COc1ccc(-c2oc3cc(O)cc(O)c3c(=O)c2OC)cc1OC` [zhang 759, 3,3′,4′-Tri-Me ether-3,3′,4′,5,7-Pentahydroxyflavone], the activity at 1 h, 1 μM under setting [1] was more than 90%.
Take `COc1cc(-c2oc3cc(O)c(OC)c(O)c3c(=O)c2O)ccc1O` [zhang 817, Spinacetin]: the “inhibitory activity to CYP1A2 (10% or greater inhibition at 1 μM)” value is on record as “found to have inhibition of CYP1A2 activity; also recorded: confirmed to have inhibitory activities to CYP1A2”. The activity at 1 h, 1 μM under setting [1] was less than 90%.
Turning to `C[C@@H]1O[C@@H](Oc2c(-c3ccc(O)cc3)oc3cc(O)cc(O)c3c2=O)[C@H](O)[C@H](O)[C@H]1O` [zhang 911, Kaempferol-3-O-α-L-rhamnopyranoside], the activity at 1 h, 1 μM (recombinant enzyme, pH 7.4) was more than 90%.
Astragaloside: the “% of Control Indication Activity (Mean)” value is more than 90%.
On the same count and under the same terms, the same measure for Echinacoside: more than 90%; for Ginkgolide B: more than 90%.
Still for that read-out and setting: the same measure for Lobetyolin: more than 90%; for Pinoresinol diglucoside: more than 90%.
On to Rhodiosin, for which the “% of Control Indication Activity (Mean)” value is on record as more than 90%.
For the compound Salvianolic acid B, the “% of Control Indication Activity (Mean)” value is reported as more than 90%.
For the compound Veratramin, the “% of Control Indication Activity (Mean)” value is more than 90%.
